In PubChem BioAssay AID1963851 (Molecular Pharmacology Branch, DTP, NCI, 2024):
pIC50: −log10 of the molar value. “And” between values parts separate entries of the source, which are not always exact repeats. Equal entries are not always repeated.

Test system: 188146-221-R-J1-PDC complex spheroid viability
Assay: Anticancer human tumor 188146-221-R-J1-PDC patient-derived colon adenocarcinoma cell line growth inhibition [POLQ]
Settings: for viability, T/C: stronger effect = lower value
Description: Multicellular complex tumor spheroid response to Polymerase (POL) inhibitors (novobiocin, ART-558, RP6685) in combination with a variety of drugs and investigational agents in selected tumor cell lines
The POL inhibitors (novobiocin, ART-558, and RP6685) were evaluated both individually and in combination with standard of care and investigational anticancer small molecules within a complex spheroid model of solid tumors. . Complex spheroids include a stromal component modeled by human endothelial cells (HUVEC) and fibroblasts modeled by human mesenchymal stem cells (MSCs). The concentration ranges selected for each drug and investigational agent were based upon clinically achievable concentrations if the clinical Cmax of the agent was known.
Compounds. The drugs and investigational agents: novobiocin (NSC847541), ART-558 (NSC835418), RP-6685 (NSC848927), peposertib (NSC802822), ceralasertib (NSC780249), elimusertib (NSC800525), camonsertib (NSC841442), AZD-1390 (NSC803789), olaparib (NSC753686), talazoparib (NSC767125), rucaparib (NSC756644), sotorasib (NSC818433), MRTX-1133 (NSC836407), SN-38 (NSC673596), topotecan (NSC609699), epotoside (NSC141540), doxorubicin (NSC123127), gemcitabine (NSC613327), 5-fluorouracil (NSC19893), paclitaxel (NSC125973), vemurafenib (NSC761431), MSA-2 (NSC828583), SN-011 (NSC837082), adavosertib (NSC754352), prexasertib (NSC758257), carboplatin (NSC241240) and oxaliplatin (NSC266046), were obtained from the National Cancer Institute (NCI) Developmental Therapeutics Program Chemical Repository (21). The FDA-approved anticancer drug set is available from the Developmental Therapeutics Program at https://dtp.cancer.gov/organization/dscb/obtaining/. […] The stock solutions were prepared in dimethyl sulfoxide (DMSO, Sigma-Aldrich, St. Louis, MO, cat. D2650), except for the platinum compounds which were prepared in saline (Quality Biological, Gaithersburg, MD, cat. 114-055-101), at 800-fold the tested concentration and stored at -70 degrees C prior to their use. All drugs and investigational agents were tested over a range starting from a high concentration at or near the clinical Cmax and decreasing in half-log increments. If the clinical Cmax for an agent had not been determined, the highest concentration tested was 10 microM, except for SN-38, which was tested at a high concentration of 1 microM.
Cell Culture. All cells were maintained in an incubator at 37 degrees C and 5% CO2 with 95% humidity. The PDC lines were cultured according to standard operating procedures established by the NCI PDMR (https://pdmr.cancer.gov). Table 3 of the manuscript, lists the cell lines along with the number of the three cell types plated to form the mct-spheroids and media for tumor cell growth. After thawing, all PDC lines, except 997537-175-T-J1-PDC and 415267-285-R-J2-PDC, were cultured in Matrigel-coated flasks prepared with a working solution of 1X Ham's F-12 nutrient mix, without supplementation (Thermo Fisher Scientific, cat. 11765054), 100 U/mL penicillin-streptomycin (Thermo Fisher Scientific, cat. 15140122), and 2.5% Matrigel (Corning Inc., Corning, NY, cat. 354248) for the first three passages. The two PDC lines 997537-175-T-J1-PDC and 415267-285-R-J2-PDC were cultured on uncoated flasks. The 857933-349-R-J2-PDC line was cultured in 6C/Colon 1B media containing advanced DMEM/F-12 (Thermo Fisher Scientific, cat. 12634028), 10 mM HEPES (Thermo Fisher Scientific, cat. 15630080), 1X GlutaMAX supplement (Thermo Fisher Scientific, cat. 35050061), 0.1 mg/mL primocin (InvivoGen, San Diego, CA, cat. ant-pm-2), 10% defined fetal bovine serum, heat inactivated (HyClone Laboratories Inc., Logan, UT, cat. SH30070.03HI), 50% L-WRN conditioned media (ATCC, cat. CRL-3276), 1.25 mM N-Acetyl-L-cysteine (Sigma-Aldrich, cat. A9165), 10 mM nicotinamide (Sigma-Aldrich, cat. N0636), 1X B-27 supplement (Thermo Fisher Scientific, cat. 17504044), 1X N-2 supplement (Thermo Fisher Scientific, cat. […]

[1] = compound alone, run of 10/31/2023
[2] = compound alone, run of 11/06/2023
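Note: spheroids exposed to compounds for seven days.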
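Throughout, for viability, T/C: 100% = DMSO vehicle control viability.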

| Structure (SMILES) | viability, T/C (compound 0.0316 µM) | viability, T/C (compound 0.1 µM) | viability, T/C (compound 0.316 µM) | viability, T/C (compound 1 µM) | viability, T/C (compound 3.16 µM) | viability, T/C (compound 10 µM) | pIC50 (curve of compound) | pIC50 [1] | viability, T/C (compound 0.00316 µM) | viability, T/C (compound 0.01 µM) | pIC50 [2] | viability, T/C (compound 0.000316 µM) | viability, T/C (compound 0.001 µM) |
| --- | --- | --- | --- | --- | --- | --- | --- | --- | --- | --- | --- | --- | --- |
| CNCc1ccc(-c2[nH]c3cc(F)cc4c3c2CCNC4=O)cc1 | 111% and 108% and 115% | 108% and 97.9% and 106% | 102% and 109% and 99.4% | 105% and 104% and 103% | 112% and 105% and 113% | 100% and 99.3% and 95.5% | < 5.00 | – | – | – | – | – | – |
| COC1C(OC(N)=O)C(O)C(Oc2ccc3c(O)c(NC(=O)c4ccc(O)c(CC=C(C)C)c4)c(=O)oc3c2C)OC1(C)C (configuration not stated) | 103% [middle of 12 runs] | – | 102% [middle of 13 runs] | 105% [middle of 13 runs] | 107% [middle of 13 runs] | 108% [middle of 13 runs] | – | < 5.00 | – | – | – | – | – |
| COc1cc(C2c3cc4c(cc3C(OC3OC5COC(C)OC5C(O)C3O)C3COC(=O)C23)OCO4)cc(OC)c1O (configuration not stated) | 115% and 92.4% and 98.7% | 102% and 84.8% and 107% | 77% and 71.8% and 65.6% | 51.8% and 43.3% and 50.5% | 30.1% and 27.2% and 24.4% | 23.1% and 24.8% and 25% | 5.99 and 6.12 and 6.10 | – | – | – | – | – | – |
| COc1cc2cc(C(=O)CCC(=O)O)sc2cc1OC | 100% and 119% and 108% | 84.6% and 105% (2×) | 108% and 88.4% and 95% | 93% and 103% and 104% | 100% and 109% and 108% | 111% and 110% and 95.3% | < 5.00 | – | – | – | – | – | – |
| COc1ccc([C@@H](O)c2cc(-c3ncnc4cc(N5CCOCC5)ccc34)c(F)cc2Cl)nn1 | 102% and 91.7% and 100% | 101% and 92.3% and 96.1% | 90.7% and 97.8% and 96.1% | 90.2% and 101% and 91.3% | 68.4% and 78.3% and 67.7% | 32.3% and 39.1% and 29.9% | 5.24 and 5.14 and 5.27 | – | – | – | – | – | – |
| COc1cccc(OCCCN)c1-c1cc(Nc2cnc(C#N)cn2)n[nH]1 | 42.7% and 75.8% and 72.2% | 20.7% and 37.1% and 32.8% | 12.7% and 16.1% and 16.8% | 9.17% and 13% (2×) | – | – | 7.57 and 7.17 and 7.21 | – | 97.7% and 99% and 88.2% | 88.1% and 99.5% and 101% | – | – | – |
| COc1cccc2c1C(=O)c1c(O)c3c(c(O)c1C2=O)CC(O)(C(=O)CO)CC3OC1CC(N)C(O)C(C)O1 (configuration not stated) | 78% and 71.8% and 78.2% | 60.5% and 38.2% and 54.6% | 32.8% and 29.6% and 32.9% | 8.2% and 10% and 11.1% | 1.38% and 0.34% and 0.33% | 0.57% and 0.47% and 0.49% | 6.81 and 7.13 and 6.88 | – | – | – | – | – | – |
| Cc1cccc(N(C)C(=O)C2C(O)CCN2c2nc(C)cc(C(F)(F)F)c2C#N)c1 (configuration not stated) | – | 102% [middle of 13 runs] | 100% [middle of 13 runs] | 105% [middle of 13 runs] | 101% [middle of 13 runs] | 97.8% [middle of 13 runs] | – | < 5.00 | – | – | < 5.00 | – | – |
| Cn1ncnc1[C@H]1c2n[nH]c(=O)c3cc(F)cc(c23)N[C@@H]1c1ccc(F)cc1 | 104% and 87% and 114% | 95.4% and 95.5% and 82.1% | – | – | – | – | < 7.00 | – | 89.9% and 107% and 95.2% | 99.5% and 108% and 103% | – | 102% and 97.5% and 109% | 112% and 93.3% and 103% |
| Nc1ccc(C#CCN(C(=O)Cc2ncc(C(F)(F)F)cc2C(F)(F)F)c2ccc(F)cc2)nn1 | 94.8% [middle of 12 runs] | 99.1% [middle of 13 runs] | 105% [middle of 13 runs] | 102% [middle of 13 runs] | 101% [middle of 12 runs] | 108% [middle of 13 runs] | – | – | – | – | < 5.00 | – | – |
| Nc1ccn(C2OC(CO)C(O)C2(F)F)c(=O)n1 (configuration not stated) | 27.1% and 27.6% and 53.7% | 17.8% and 15.8% and 24.2% | 13.2% and 15.2% and 14.9% | 16.1% and 16.9% and 13.9% | 15.9% and 19.2% and 16.6% | 10.9% (2×) and 15.4% | > 7.50 and 7.44 | – | – | – | – | – | – |
| O=C(Nc1ccc(O)c(NS(=O)(=O)c2ccc(F)cc2)c1)c1ccc(-c2ccccc2)cc1 | 93.2% and 100% and 110% | 98.5% and 107% and 104% | 89.5% and 95.1% and 93.5% | 93.2% and 103% and 118% | 99.4% and 81.3% and 100% | 59.1% and 73.5% and 78.4% | < 5.00 | – | – | – | – | – | – |
| O=C(c1cc(Cc2n[nH]c(=O)c3ccccc23)ccc1F)N1CCN(C(=O)C2CC2)CC1 | 95.8% and 103% and 101% | 105% and 101% and 97% | 89.8% and 97.6% and 92.6% | 90.3% and 81.9% and 108% | 104% and 95.4% and 97.6% | 73.3% and 74% and 74.6% | < 5.00 | – | – | – | – | – | – |
| O=c1[nH]cc(F)c(=O)[nH]1 | 102% and 101% and 107% | 95.6% and 97.8% and 103% | 66.6% and 74% and 69.3% | 59.6% and 61.5% and 58.3% | 44.9% and 51.3% and 45.6% | 31.6% and 43.5% and 31.8% | 5.74 and 5.52 and 5.77 | – | – | – | – | – | – |
